Counter-ions that a name gives are not always drawn.
Test system: IRE1-XBP1s (HEK293 T-REx cells stably expressing the XBP1-RLuc splicing reporter)
Assay: IRE1-XBP1s activation Assay (XBP1-RLuc splicing reporter, luminescence relative to thapsigargin, with or without IRE1 inhibitor 4μ8C)
Type: cell-based
Conditions: 18 h, compound 10 μM, luminescence as percentage signal relative to thapsigargin (Tg) (500 nM, 18 h)
Description: IRE1-XBP1s activation Assay: HEK293 T-REx cells stably expressing the XBP1-RLuc splicing reporter were treated with an IRE1-XBP1s activator provided herein (10 μM) in the presence or absence of the IRE1 active site inhibitor 4μ8C (32 μM) for 18 h. Luminescence was shown as the percentage signal relative to thapsigargin (Tg) (500 nM, 18 h).

SMILES	activation at 10 µM [%]
O=C(CCOc1ccccc1)Nc1cnn(CC(=O)Nc2ccc(-n3cncn3)cc2)c1 [Compound 30]	< 30
Cc1ccc(OCCN(C)C(=O)Cn2cc(NC(=O)C3CCN(c4ccccc4)C3)cn2)cc1 (stereo not drawn) [Compound 64]	< 30
O=C(CCOc1ccccc1)Nc1cnn(CC(=O)N2CCCC(Oc3ccc(C(F)(F)F)cc3)C2)c1 (stereo not drawn) [Compound 4, N-(1-(2-oxo-2-(3-(4-(trifluoromethyl)phenoxy)piperidin-1-yl)ethyl)-1H-pyrazol-4-yl)-3-phenoxypropanamide hydrochloride]	30 to 50
Cc1ccc(OCCN(C)C(=O)Cn2cc(NC(=O)c3cccc(Oc4ccccc4)c3)cn2)cc1 [Compound 2]	< 30
Cc1ccc(C2CCN(C(=O)Cn3cc(NC(=O)CCOc4ccccc4)cn3)C2)cc1 (stereo not drawn) [Compound 18]	< 30
Cc1c(F)cc(O[C@H]2CCCN(C(=O)Cn3cc(NC(=O)CCNc4ccnc(F)n4)cn3)C2)cc1F [Compound 180]	≥ 50
Cc1ccc(Oc2ccc(N(C)C(=O)Cn3cc(NC(=O)CCOc4ccccc4Cl)cn3)cc2)cc1 [Compound 24]	30 to 50
Cc1ccc(OC2COCCN(C(=O)Cn3cc(NC(=O)CCOc4ccccc4)cn3)C2)cc1 (stereo not drawn) [Compound 65]	30 to 50
COc1ccccc1OCCC(=O)Nc1cnn(CC(=O)N2CCCC(Oc3ccc(C)cc3)C2)c1 (stereo not drawn) [Compound 40]	30 to 50
Cc1ccc(OCCN(C)C(=O)Cn2cc(N(C)C(=O)[C@@H]3CCC(=O)N(Cc4ccccc4)C3)cn2)cc1 [Compound 16]	< 30
COc1ncc(Cl)cc1NCCC(=O)Nc1cnn(CC(=O)N2CCC[C@H](Oc3ccc(C)cc3)C2)c1 [Compound 157]	≥ 50
Cc1ccc(OCCN(C)C(=O)Cn2cc(NC(=O)C3CCC(Oc4ccncc4)CC3)cn2)cc1 (stereo not drawn) [Compound 102]	≥ 50
O=C(Cn1cc(NC(=O)[C@H]2C[C@H](Oc3ccccn3)C2)cn1)N1CCC[C@H](Oc2ccc(C(F)(F)F)cn2)C1 [Compound 145]	< 30
Cc1ccc(O[C@H]2CCCN(C(=O)Cn3cc(NC(=O)COc4cccnc4)cn3)C2)cc1 [Compound 149]	< 30
Cc1ccc(C2=CC(C)(C)Oc3cc(N(C)C(=O)Cn4cc(NC(=O)CCOc5ccccc5)cn4)ccc32)cc1 [Compound 59, N-(1-(2-((2,2-dimethyl-4-(p-tolyl)-2H-chromen-7-yl)(methyl)amino)-2-oxoethyl)-1H-pyrazol-4-yl)-3-phenoxypropanamide]	< 30
Cc1ccc(OCCN(C)C(=O)Cn2cc(N(C)C(=O)[C@@H]3CCCN(C(=O)c4ccccc4)C3)cn2)cc1 [Compound 15]	< 30
Cc1ccc(OCCN(C)C(=O)Cn2cc(NC(=O)[C@H]3CC[C@H](Oc4ccccc4)CC3)cn2)cc1 [Compound 5]	< 30
Cc1ccc(O[C@@H]2CCCN(C(=O)Cn3cc(NC(=O)CCNc4ccnc(F)n4)cn3)C2)cc1 [Compound 176]	30 to 50
Cc1ccc(OC2CCCN(C(=O)Cn3cc(NC(=O)CCOc4ccccc4C(F)(F)F)cn3)C2)cc1 (stereo not drawn) [Compound 83]	< 30
O=C(Cn1cc(NC(=O)[C@H]2C[C@H](Oc3ccccc3)C2)cn1)N1CCC[C@H](Oc2ccc(C(F)(F)F)cn2)C1 [Compound 109]	< 30
CN(CCOc1ccc(C(F)(F)F)cn1)C(=O)Cn1cc(NC(=O)C2CNc3ccccc3O2)cn1 (stereo not drawn) [Compound 191]	< 30
Cc1ccc(OC2CCC3(C2)CN(C(=O)Cn2cc(NC(=O)CCNc4ccnc(F)n4)cn2)C3)cc1 (stereo not drawn) [Compound 175]	< 30
Cc1ccc(OC2CCCN(C(=O)Cn3cc(NC(=O)CCOc4ccc(F)cc4C)cn3)C2)cc1 (stereo not drawn) [Compound 98]	≥ 50
Cc1ccc(O[C@H]2CCCN(C(=O)Cn3cc(NC(=O)C4CC(Oc5ccccn5)C4)cn3)C2)cc1 (stereo partly drawn) [Compound 105]	30 to 50

Reference: patent US20260193244A1 (Protego Biopharma, Inc., priority 2022, published 2026)
